From patent US20150299143A1, “SUBSTITUTED TRIAZOLE AND IMIDAZOLE COMPOUNDS” (HOFFMANN-LA ROCHE INC., priority 2012, published 2015) come the findings set out here.

Where two headings read alike, the source gives them in different places.

Assay [1] has as its target T1, β5c (chymotrypsin-like activity) (Homo sapiens, UniProt P20618+P28074).
T1 construct: protease activity associated with the proteasome complex in cultured cells; endogenous in cells; host or cells: Ramos cells
The assay is described as follows: Cell-Based Proteasome subunit activity/selectivity assay, β5c, substrate (WLA)2Rh110. The source says:
(§1) Cell-Based Proteasome Activity/Selectivity Assay
(§2) The Cell-Based Proteasome subunit activity/selectivity assay was a panel of 5 fluorogenic assays that independently measured the activity of β5c or β 5i (chymotrypsin-like activity), β 2c/2i (trypsin-like), and β 1c or β 1i (caspase-like) protease activity associated with the proteasome complex in cultured cells. Specifically, the following substrates were used for respective subunit activities: β 1i (PAL)2Rh110, β 1c: (LLE)2 Rh110, β 2c/2i: (KQL)2Rh110, β 5c: (WLA)2Rh110, β 5i: (ANW)2Rh110. The following procedure was followed:
(§3) Added 0.5 μl of 100× 4-fold serial diluted test compounds or DMSO to each well. Highest concentration of compound tested was 20 μM, thus compound serial dilution started from […]. Incubated for 30 minutes at 37° C. Then equilibrated at room temperature for 15 minutes. […] Shaked for one minute @ 700 rpm. Incubated for 120 min at room temperature. Then read the plates with an Envision multilabel plate reader (PerkinElmer) with 500 nm excitation/519 nm emission.

The target in the next assay is T2, β 1c (caspase-like) (Homo sapiens, UniProt P28072+Q99436).
T2 construct: protease activity associated with the proteasome complex in cultured cells; endogenous in cells; host or cells: Ramos cells
The assay is described as follows: Cell-Based Proteasome subunit activity/selectivity assay, β1c, substrate (LLE)2Rh110.
Description: as §1, §2, §3

For assay [2], the target named is T3, β 5i (chymotrypsin-like activity) (Homo sapiens, UniProt P20618+P28062).
T3 construct: protease activity associated with the proteasome complex in cultured cells; endogenous in cells; host or cells: Ramos cells
Nature of the assay: Cell-Based Proteasome subunit activity/selectivity assay, β5i, substrate (ANW)2Rh110. To be noted: Ramos cells; substrate (ANW)2Rh110 (β5i); highest concentration tested 20 μM; read-out: Ic50:ramos:ac-(anw)2-r110.
Description: as §1, §2, §3

The test system of another assay is β 2c/2i (trypsin-like). The assay is described as follows: Cell-Based Proteasome subunit activity/selectivity assay, β2c/2i, substrate (KQL)2Rh110. To be noted: Ramos cells; substrate (KQL)2Rh110 (β2c/2i); highest concentration tested 20 μM.
Description: as §1, §2, §3

The next assay concerns the target T4, β 1i (caspase-like) (Homo sapiens, UniProt P28065+P40306).
T4 construct: protease activity associated with the proteasome complex in cultured cells; endogenous in cells; host or cells: Ramos cells
Nature of the assay: Cell-Based Proteasome subunit activity/selectivity assay, β1i, substrate (PAL)2Rh110.
Description: as §1, §2, §3

Where [3] appears, read: Ramos cells, substrate (WLA)2Rh110 (β5c), highest concentration tested 20 μM, read-out: Ic50:ramos:rh110-(wla)2.
The mark [4] stands for this setting: Ramos cells, substrate (LLE)2Rh110 (β1c), highest concentration tested 20 μM, read-out: Ic50:ramos:rh110-(lle)2.
The mark [5] stands for this setting: Ramos cells, substrate (PAL)2Rh110 (β1i), highest concentration tested 20 μM, read-out: Ic50:ramos:rh110-(pal)2.

What is called IC50 is the point on the concentration scale where inhibition reaches its midpoint. `COc1ccc(C(=O)NCCn2cc(C(=O)NCc3ccc(SC)cc3)nn2)c(OC)c1OC` [Example 6, 1-[2-(2,3,4-Trimethoxy-benzoylamino)-ethyl]-1H-[1,2,3]triazole-4-carboxylic acid 4-methylsulfanyl-benzylamide]: the IC50 in assay [1] (setting [3]) is at least 20 µM; on β 1c (caspase-like) (setting [4]), at least 20 µM; in assay [2], 0.919 µM; with β 2c/2i (trypsin-like) it was at least 20 µM; on β 1i (caspase-like) (setting [5]) it was at least 20 µM.
`COc1cc(C(F)(F)F)ccc1C(=O)NCCn1cnc(C(=O)NC(C#N)c2ccc(Br)cc2)c1` (stereo not shown) [Example 93, 1-[2-(2-Methoxy-4-trifluoromethyl-benzoylamino)-ethyl]-1H-imidazole-4-carboxylic acid [(4-bromo-phenyl)-cyano-methyl]-amide]: the half-inhibitory concentration (IC50) was at least 20 µM in assay [1] (setting [3]); at least 20 µM on β 1c (caspase-like) (setting [4]); 0.497 µM in assay [2]; at least 20 µM in the assay with β 2c/2i (trypsin-like); at least 20 µM on β 1i (caspase-like) (setting [5]).
On to `COc1ccc(C(=O)NCCn2cc(C(=O)NC(C#N)c3ccc(OC(C)C)cc3)nn2)c(OC)c1OC` (stereo not shown) [Example 67, 1-[2-(2,3,4-Trimethoxy-benzoylamino)-ethyl]-1H-[1,2,3]triazole-4-carboxylic acid [cyano-(4-isopropoxy-phenyl)-methyl]-amide], for which the half-maximal inhibitory concentration (IC50) in assay [1] (setting [3]) was at least 20 µM; at β 1c (caspase-like) (setting [4]), at least 20 µM; in assay [2], 5.49 µM; in the assay on β 2c/2i (trypsin-like), at least 20 µM; on β 1i (caspase-like) (setting [5]) it was at least 20 µM.
As to `COc1ccc(C(=O)NCCn2cc(C(=O)NC(C#N)c3cccc4ccccc34)nn2)c(OC)c1OC` (stereo not shown) [Example 57, 1-[2-(2,3,4-Trimethoxy-benzoylamino)-ethyl]-1H-[1,2,3]triazole-4-carboxylic acid (cyano-naphthalen-1-yl-methyl)-amide], the IC50 in assay [1] was at least 20 µM; against β 1c (caspase-like), at least 20 µM; in assay [2], 6.49 µM; in the assay with β 2c/2i (trypsin-like) it was at least 20 µM; at β 1i (caspase-like) it was at least 20 µM.
Turning to `CCc1ccc(C(C#N)NC(=O)c2cn(CCNC(=O)c3cc(OC)ccc3F)nn2)cc1` (stereo not shown) [Example 32, 1-[2-(2-Fluoro-5-methoxy-benzoylamino)-ethyl]-1H-[1,2,3]triazole-4-carboxylic acid [cyano-(4-ethyl-phenyl)-methyl]-amide], the half-inhibitory concentration (IC50) is at least 20 µM in assay [1] (setting [3]); at least 20 µM at β 1c (caspase-like) (setting [4]); 0.682 µM in assay [2]; at least 20 µM in the assay on β 2c/2i (trypsin-like); at least 20 µM at β 1i (caspase-like) (setting [5]).
Consider `CC1=C(C(=O)NCCn2cc(C(=O)NC(C#N)c3ccc(C(F)(F)F)cc3)nn2)Cc2ccccc21` (stereo not shown) [Example 70, 1-{2-[(3-Methyl-1H-indene-2-carbonyl)-amino]-ethyl}-1H-[1,2,3]triazole-4-carboxylic acid [cyano-(4-trifluoromethyl-phenyl)-methyl]-amide], for which the concentration for half-maximal inhibition (IC50) in assay [1] (setting [3]) was 10.8 µM; at β 1c (caspase-like) (setting [4]), at least 20 µM; in assay [2], 0.445 µM; with β 2c/2i (trypsin-like), at least 20 µM; at β 1i (caspase-like) (setting [5]) it was at least 20 µM.
On to `COc1cccc(C(C#N)NC(=O)c2cn(CCNC(=O)c3ccc(OC)c(OC)c3OC)nn2)c1` (stereo not shown) [Example 52, 1-[2-(2,3,4-Trimethoxy-benzoylamino)-ethyl]-1H-[1,2,3]triazole-4-carboxylic acid [cyano-(3-methoxy-phenyl)-methyl]-amide], for which the 50% inhibitory concentration (IC50) in assay [1] (setting [3]) was at least 20 µM; at β 1c (caspase-like) (setting [4]), at least 20 µM; in assay [2], 2.69 µM; with β 2c/2i (trypsin-like), at least 20 µM; on β 1i (caspase-like) (setting [5]), at least 20 µM.
With `CCc1ccc(C(C#N)NC(=O)c2cn(CCNC(=O)c3ccc(S(C)(=O)=O)cc3Cl)nn2)cc1` (stereo not shown) [Example 41, 1-[2-(2-Chloro-4-methanesulfonyl-benzoylamino)-ethyl]-1H-[1,2,3]triazole-4-carboxylic acid [cyano-(4-ethyl-phenyl)-methyl]-amide], the half-maximal inhibitory concentration (IC50) in assay [1] (setting [3]) is at least 20 µM; at β 1c (caspase-like) (setting [4]) it was at least 20 µM; in assay [2], 0.282 µM; in the assay on β 2c/2i (trypsin-like), at least 20 µM; on β 1i (caspase-like) (setting [5]), at least 20 µM.
Regarding `COc1ccc(C(=O)NCCn2cc(C(=O)NC(C#N)c3ccc(OCc4ccccc4)cc3)nn2)c(OC)c1OC` (stereo not shown) [Example 56, 1-[2-(2,3,4-Trimethoxy-benzoylamino)-ethyl]-1H-[1,2,3]triazole-4-carboxylic acid [(4-benzyloxy-phenyl)-cyano-methyl]-amide], the 50% inhibitory concentration (IC50) in assay [1] (setting [3]) is 8.3 µM; at β 1c (caspase-like) (setting [4]), 19.1 µM; in assay [2], 5.68 µM; with β 2c/2i (trypsin-like), at least 20 µM; on β 1i (caspase-like) (setting [5]) it was at least 20 µM.
Take `COc1ccc(C(=O)NCCn2cc(C(=O)NC(C#N)c3ccc4ccsc4c3)nn2)c(OC)c1OC` (stereo not shown) [Example 66, 1-[2-(2,3,4-Trimethoxy-benzoylamino)-ethyl]-1H-[1,2,3]triazole-4-carboxylic acid (benzo[b]thiophen-6-yl-cyano-methyl)-amide]: the half-inhibitory concentration (IC50) was at least 20 µM in assay [1] (setting [3]); at least 20 µM at β 1c (caspase-like) (setting [4]); 0.795 µM in assay [2]; at least 20 µM in the assay with β 2c/2i (trypsin-like); at least 20 µM on β 1i (caspase-like) (setting [5]).
For the molecule `CCc1ccc(C(C#N)NC(=O)c2cn(CCNC(=O)c3ccc(Cl)cn3)nn2)cc1` (stereo not shown) [Example 44, 5-Chloro-pyridine-2-carboxylic acid [2-(4-{[cyano-(4-ethyl-phenyl)-methyl]-carbamoyl}-[1,2,3]triazol-1-yl)-ethyl]-amide], the IC50 is at least 20 µM in assay [1] (setting [3]); at least 20 µM on β 1c (caspase-like) (setting [4]); 2.93 µM in assay [2]; at least 20 µM in the assay with β 2c/2i (trypsin-like); at least 20 µM at β 1i (caspase-like) (setting [5]).
On to `Cc1ccc(C(=O)NCCn2cc(C(=O)NC(C#N)c3ccc(C(F)(F)F)cc3)nn2)c(F)c1` (stereo not shown) [Example 75, 1-[2-(2-Fluoro-4-methyl-benzoylamino)-ethyl]-1H-[1,2,3]triazole-4-carboxylic acid [cyano-(4-trifluoromethyl-phenyl)-methyl]-amide], for which the IC50 in assay [1] (setting [3]) was 19.9 µM; at β 1c (caspase-like) (setting [4]), at least 20 µM; in assay [2] it was 1.39 µM; with β 2c/2i (trypsin-like), at least 20 µM; at β 1i (caspase-like) (setting [5]) it was at least 20 µM.
As for `CCc1ccc(C(C#N)NC(=O)c2cn(CCN3Cc4ccccc4C3=O)nn2)cc1` (stereo not shown) [Example 46, 1-[2-(1-Oxo-1,3-dihydro-isoindol-2-yl)-ethyl]-1H-[1,2,3]triazole-4-carboxylic acid [cyano-(4-ethyl-phenyl)-methyl]-amide], the concentration for half-maximal inhibition (IC50) in assay [1] (setting [3]) was 16.1 µM; on β 1c (caspase-like) (setting [4]), at least 20 µM; in assay [2] it was 5.94 µM; in the assay on β 2c/2i (trypsin-like), at least 20 µM; on β 1i (caspase-like) (setting [5]), at least 20 µM.
As for `CCc1ccc(C(C#N)NC(=O)c2cn(CCNC(=O)C3Cc4ccccc4C3)nn2)cc1` (stereo not shown) [Example 12, 1-{2-[(Indane-2-carbonyl)-amino]-ethyl}-1H-[1,2,3]triazole-4-carboxylic acid [cyano-(4-ethyl-phenyl)-methyl]-amide], the IC50 is at least 20 µM in assay [1] (setting [3]); at least 20 µM at β 1c (caspase-like) (setting [4]); 1.26 µM in assay [2]; at least 20 µM in the assay on β 2c/2i (trypsin-like); at least 20 µM at β 1i (caspase-like) (setting [5]).
Consider `CCc1ccc(C(C#N)NC(=O)c2nc(CCNC(=O)c3ccc(C(F)(F)F)cc3F)n[nH]2)cc1` (stereo not shown) [Example 91, 5-[2-(2-Fluoro-4-trifluoromethyl-benzoylamino)-ethyl]-2H-[1,2,4]triazole-3-carboxylic acid [cyano-(4-ethyl-phenyl)-methyl]-amide], for which the IC50 in assay [1] (setting [3]) was at least 20 µM; on β 1c (caspase-like) (setting [4]), at least 20 µM; in assay [2] it was 0.054 µM; with β 2c/2i (trypsin-like) it was at least 20 µM; on β 1i (caspase-like) (setting [5]) it was at least 20 µM.
Consider `CCc1ccc(C(C#N)NC(=O)c2cn(CCCNC(=O)c3ccc(C(F)(F)F)cc3OC)nn2)cc1` (stereo not shown) [Example 85, 1-[3-(2-Methoxy-4-trifluoromethyl-benzoylamino)-propyl]-1H-[1,2,3]triazole-4-carboxylic acid [cyano-(4-ethyl-phenyl)-methyl]-amide], for which the 50% inhibitory concentration (IC50) in assay [1] (setting [3]) was at least 20 µM; at β 1c (caspase-like) (setting [4]) it was at least 20 µM; in assay [2] it was 0.239 µM; with β 2c/2i (trypsin-like), at least 20 µM; on β 1i (caspase-like) (setting [5]), at least 20 µM.
In the case of `CCc1ccc(C(C#N)NC(=O)c2cn(CCNC(=O)c3cccc4c3OCC4)nn2)cc1` (stereo not shown) [Example 13, 1-{2-[(2,3-Dihydro-benzofuran-7-carbonyl)-amino]-ethyl}-1H-[1,2,3]triazole-4-carboxylic acid [cyano-(4-ethyl-phenyl)-methyl]-amide], the IC50 in assay [1] (setting [3]) was at least 20 µM; at β 1c (caspase-like) (setting [4]), at least 20 µM; in assay [2], 1.89 µM; with β 2c/2i (trypsin-like), at least 20 µM; at β 1i (caspase-like) (setting [5]) it was at least 20 µM.
